According to patent publication US20190175766A1, “STABILIZED CROSSLINKED NANOBUBBLES FOR DIAGNOSTIC AND THERAPEUTIC APPLICATIONS” (CASE WESTERN RESERVE UNIVERSITY, priority 2016, published 2019):

How the values were obtained:
LS174-T cells = assay: Measurement of intracellular drug uptake; type: cell-based, human; conditions: with and without TUS
Experimental: LS174-T cells were grown in a 12-well cell culture plate at a cell concentration of 2.5×10^4 cells/ml one day before the treatment. The treatment groups were the same as cell toxicity test above. After 2 h treatment in incubator, the drugs were aspirated and washed with sterile PBS 3 times. The attached cells were fixed with 3% formaldehyde solution for 10 min. After 3 times wash with PBS, the cells of different treatment groups were imaged at 5× and 20× on the Zeiss Axio Observer Z1 motorized FL microscope with the same parameter and scanned zones. Average Dox fluorescence of cells in different treatment groups was calculated by ImageJ.

LS174T cell line = assay: Cell toxicity test (WST-1); type: cell-based, human
Experimental: LS174-T human colorectal adenocarcinoma cells (ATCC, Manassas, Va.) were cultured in complete MEM medium (10% fetal bovine serum, 1% penicillin-streptomycin; Invitrogen, Carlsbad, Calif.) and placed in a humidified atmosphere at 37° C. and 5% CO2. Cells were passaged until they were 90% confluent, then detached with 0.25% trypsin-EDTA (Invitrogen, Carlsbad, Calif.).
One day prior to the treatment, cells were passaged at confluence and plated in flat bottom, clear, cell culture treated 96-well plates (Falcon, Franklin Lakes, N.J.) using a cell density of 2.5×10^4 cells/ml, 100 ul for each well overnight. After 24 h of incubation, the surface medium were aspirated carefully and cells were treated for 3 h as following groups: • 1 No treat Incomplete MEM medium were added. • 2. Dox 1 μg/ml Doxorubicin in incomplete MEM medium were added. • 3. Dox-NB 2000 times diluted original Dox-NB in incomplete MEM medium were added. • 4. […]
Plate wells were filled with relevant treatment medium, sealed with Parafilm® M (Fisher Scientific; Pittsburgh, Pa.), then inverted the plate to ensure the cells contact with Dox-NB for 20 min. […] After that, 1:10 diluted solution of WST-1 reagent ( ) replaced the medium and incubated for 1 h and then the plate was scanned with a TECAN plate reader (infinite M200, San Jose, Calif.) at 450 nm.

SMILES: COc1cccc2c1C(=O)c1c(O)c3c(c(O)c1C2=O)C[C@@](O)(C(=O)CO)C[C@@H]3O[C@H]1C[C@H](N)[C@H](O)[C@H](C)O1 [Dox, Doxorubicin]
- location of Dox in treated cells (LS174-T cells): mainly located in nuclei
- Fluorescence value (cell viability test) (LS174T cell line; plus therapeutic ultrasound (TUS) 3 MHz, 2 W/cm2, 1 min): 0.28 ± 0.06
- Fluorescence value (cell viability test) (LS174T cell line; without TUS, Dox 1 μg/ml, Dox-NB 2000 times diluted): 0.36 ± 0.10
